For 1 compound, IC50 results are on record in PMC5064022, “KCNE1 induces fenestration in the Kv7.1/KCNE1 channel complex that allows for highly specific pharmacological targeting” (Nature Communications, 2016).

The test deals with I274A/KCNE1 (Homo sapiens, UniProt P15382+P51787, I274A). The experiment in a line: TEVC, mutant channel I274A/KCNE1 in oocytes. Type of test: cell-based. Conditions: Kv7.1 I274A mutant with KCNE1. The text has this: Ala scanning was previously used to identify specific residues that form the putative binding sites for chromanol and benzodiazepine derivatives that are considered to be classical pore blockers of Kv7.1 channels. Here we applied Ala scanning to multiple segments of the Kv7.1 α-subunit to identify potential AC-1 interaction sites in the extended pore region of Kv7.1/KCNE1 channels (Fig. 3a). In cases where mutation to Ala precluded channel function, alternative residues were introduced. […] Instead, most of these crucial residues cluster around a ‘window' formed uniquely in the preopen–closed state model of the Kv7.1/KCNE1 channel[33] (Fig. 3c, magenta residues). […]
Template cDNAs (wildtype or mutant human Kv7.1 in pSGEM, wildtype human KCNE1 in pSP64) were linearized with a suitable restriction enzyme (Nhe I/pSGEM, Eco RI/pSP64). cRNA was synthesized from 1 μg linearized cDNA by in vitro transcription (mMessage mMachine T7 or SP6 kit, Ambion, Life Technologies Darmstadt, Germany). cRNA concentrations were determined by photometry (Nanodrop, Peqlab, Erlangen, Germany) and cRNA quality was checked by agarose gel electrophoresis. […]
TEVC measurements were performed using a TurboTec-10CD amplifier (npi Electronic, Tamm, Germany) and an ITC-16 AD/DA-interface (Instrutech Corporation, Port Washington, New York, USA). […] Tail currents were recorded at −120 mV. […]

Usually IC50 stands for the concentration needed to halve the response being measured. Read a high IC50 as weaker potency. Consider `CC(C)(Oc1ccc(Cl)cc1)C(=O)NC1C2CC3CC1CC(NS(C)(=O)=O)(C3)C2` (stereo not shown) [AC-1, 2-(4-chlorophenoxy)-2-methyl-N-[5-[(methylsulfonyl)amino]tricyclo[3.3.1.13,7]dec-2-yl]-propanamide], for which inhibition was half-maximal at 327 ± 83 nM (IC50).
